Here are results for seven compounds from publication PMC9956223, “In Vitro Inhibitory Effects of Polyphenols from Flos sophorae immaturus on α-Glucosidase: Action Mechanism, Isothermal Titration Calorimetry and Molecular Docking Analysis” (Foods, 2023).

SMILES strings stand for the structures. pKi: −log10 of the molar value. “Also recorded” adds a separate entry of the source. Marks after values point to notes of the source that are not given here.

Assay [1] concerns α-glucosidase (Yeast). Briefly: Omission experiment (model, single polyphenol and recombinant solutions). Type of assay: biochemical. The note with it: single polyphenol solution at its content in FSI extract (RU 3.40, QU 0.38, HY 0.34, QI 0.23, KA 0.23 mg/mL). As to the method: (§1) The α-glucosidase inhibitory activity of the FSI samples was measured using the method described by Xiao et al., with minor modifications. Each sample solution (0.2 mL) was mixed with 1 mL of α-glucosidase (0.2 U/mL) of pH = 6.8 phosphate buffer solution. After incubation at 37 °C for 15 min, 0.5 mL of 5 mmol/L PNPG in phosphate buffer solution was added. The reaction was terminated by the addition of 1 mL of 0.1 mol/L sodium Na2CO3 […] at 37 °C for 15 min. The absorbance was measured at 405 nm. The α-glucosidase inhibitory activity was calculated using the following Equation (1):(1) α-Glucosidase inhibitory activity(%)=(ΔAcontrol−ΔAsample/ΔAcontrol)×100
Three different solutions were prepared based on different polyphenol fractions (RU (3.40 mg/mL), QU (0.38 mg/mL), HY (0.34 mg/mL), QI (0.23 mg/mL) and KA (0.23 mg/mL): (1) Model solution: a model solution based on the composition of FSI extract. (2) Single polyphenol solution: a component solution containing only a single polyphenol, prepared based on the polyphenol content in FSI extract. (3) Recombinant solution: a reconstituted solution consisting of the missing individual polyphenol. The α-glucosidase inhibitory activities of the model, single polyphenol and recombinant solutions were determined and the contribution of the missing polyphenols to α-glucosidase activity inhibition was calculated.

For assay [2], the target named is α-glucosidase (Yeast). Description: α-glucosidase inhibitory activity (PNPG substrate, absorbance at 405 nm). Format: biochemical. The note with it: α-glucosidase 0.2 U/mL, pH 6.8, 37 °C. On the procedure: as §1
For assay [3], the system named is α-glucosidase (Yeast). Description: α-glucosidase inhibition type and kinetic analysis (Lineweaver–Burk). Format: biochemical. The note with it: for type of inhibition: Lineweaver–Burk plots; for pKi: binding to α-glucosidase, Lineweaver–Burk. On the procedure: In 5 mL of the reaction system, different concentrations of PNPG (0.5 mL) were mixed with different concentrations of polyphenols (0.1 mL) in a warm bath at 37 °C for 5 min, α-glucosidase solution (1 mL) was added and the absorbance was recorded at 405 nm in real time. Lineweaver–Burk curve method using the inverse of the PNPG concentration 1/(s) as the horizontal coordinate and the inverse of the enzymatic reaction rate 1/v as the vertical coordinate, and the type of inhibition was determined from the characteristics of the graph.

In assay [4] the test system is α-glucosidase (Yeast). Briefly: Fluorescence quenching (Stern–Volmer) and thermodynamic parameters. Format: binding. On the procedure:
An equal volume of polyphenol solution (0.02 mg/mL) was added to 3 mL of α-glucosidase solution (0.05 mg/mL) in 9 separate additions of 10 μL each. The mixture was shaken and then placed in a warm bath at 37 °C for 15 min. The system was scanned for fluorescence at three temperatures (298 K, 303 K, 310 K) using an F-7000 fluorescence spectrometer (Hitachi, Tokyo, Japan) at an excitation wavelength of 280 nm and excitation and emission slits of 5 nm. The fluorescence was scanned in the range of 310–500 nm and the corresponding blank control fluorescence spectra were subtracted to calculate the fluorescence. The Stern–Volmer equation was used to calculate the fluorescence burst constants and determine the type of burst.
Therefore, the spontaneity and binding force of their interactions can be studied by calculating thermodynamic parameters. The values of the free energy change (ΔG), enthalpy change (ΔH) and entropy change (ΔS) can be calculated by Equations (5) and (6). (5) ΔG=[…]=ΔH−TΔS (6) lnKb2/Kb1=[…]ΔH×1/R where R = 8.314 J/(mol·K).

Take `C[C@@H]1O[C@@H](Oc2c(-c3ccc(O)c(O)c3)oc3cc(O)cc(O)c3c2=O)[C@H](O)[C@H](O)[C@H]1O` [Quercitrin, quercitrin]: the “α-Glucosidase Inhibition Rate of Omitted Compounds” value (from here on “α-Glucosidase Inhibition Rate”) in the assay on α-glucosidase (Yeast) [1] was 77.00 ± 0.20%. The IC50 against α-glucosidase (Yeast) [2] is 25.37 ± 0.13 ^e mg/mL. In addition, the type of inhibition result in the assay with α-glucosidase (Yeast) [3] (listed as QI) was “mixed type of inhibition; also recorded: mixed inhibitors”. On α-glucosidase (Yeast) [3], this compound gave a negative logarithm of the Ki (pKi) of 2.27. The KSV with α-glucosidase (Yeast) [4] (298 K) came to 74500 L/mol; in the assay on α-glucosidase (Yeast) [4] (303 K), 78700 L/mol; with α-glucosidase (Yeast) [4] (310 K), 54500 L/mol. Besides, the Kq amounted to 7.45e+12 M⁻¹ s⁻¹ in the assay with α-glucosidase (Yeast) [4] (298 K), 7.87e+12 M⁻¹ s⁻¹ in the assay with α-glucosidase (Yeast) [4] (303 K) and 5.45e+12 M⁻¹ s⁻¹ in the assay with α-glucosidase (Yeast) [4] (310 K).
Turning to `O=c1c(O)c(-c2ccc(O)cc2)oc2cc(O)cc(O)c12` [Kaempferol, kaempferol], the “α-Glucosidase Inhibition Rate” value in the assay on α-glucosidase (Yeast) [1] came out at 81.00 ± 0.12%. For the same compound, the type of inhibition entry in the assay with α-glucosidase (Yeast) [3] (listed as KA) is reported as “mixed type of inhibition; also recorded: mixed inhibitors”. Besides, the KSV is 222300 L/mol in the assay with α-glucosidase (Yeast) [4] (298 K), 493300 L/mol in the assay with α-glucosidase (Yeast) [4] (303 K) and 424600 L/mol with α-glucosidase (Yeast) [4] (310 K). Also, the Kq came to 2.223e+13 M⁻¹ s⁻¹ with α-glucosidase (Yeast) [4] (298 K), 4.933e+13 M⁻¹ s⁻¹ in the assay on α-glucosidase (Yeast) [4] (303 K) and 4.246e+13 M⁻¹ s⁻¹ in the assay on α-glucosidase (Yeast) [4] (310 K).
With `C[C@@H]1O[C@@H](OC[C@H]2O[C@@H](Oc3c(-c4ccc(O)c(O)c4)oc4cc(O)cc(O)c4c3=O)[C@H](O)[C@@H](O)[C@@H]2O)[C@H](O)[C@H](O)[C@H]1O` [Rutin], the “α-Glucosidase Inhibition Rate” value with α-glucosidase (Yeast) [1] was determined as 69.00 ± 0.11%. Also, the type of inhibition result in the assay on α-glucosidase (Yeast) [3] (listed as RU) is listed as “mixed type of inhibition; also recorded: mixed inhibitors”. The KSV came out at 45000 L/mol in the assay on α-glucosidase (Yeast) [4] (298 K), 93700 L/mol in the assay on α-glucosidase (Yeast) [4] (303 K) and 93400 L/mol in the assay on α-glucosidase (Yeast) [4] (310 K). Further, the Kq in the assay with α-glucosidase (Yeast) [4] (298 K) is 4.5e+12 M⁻¹ s⁻¹; in the assay with α-glucosidase (Yeast) [4] (303 K), 9.37e+12 M⁻¹ s⁻¹; with α-glucosidase (Yeast) [4] (310 K) it was 9.34e+12 M⁻¹ s⁻¹.
For the compound `O=c1c(O)c(-c2ccc(O)c(O)c2)oc2cc(O)cc(O)c12` [Quercetin, quercetin], the “α-Glucosidase Inhibition Rate” value with α-glucosidase (Yeast) [1] came to 89.00 ± 0.25%. Also, the type of inhibition entry in the assay with α-glucosidase (Yeast) [3] (listed as QU) is given as “mixed type of inhibition; also recorded: mixed inhibitors”. The figures for the KSV in the assay on α-glucosidase (Yeast) [4] (298 K), with α-glucosidase (Yeast) [4] (303 K) and with α-glucosidase (Yeast) [4] (310 K) were 107100 L/mol, 75200 L/mol and 55500 L/mol, respectively. Moreover, the Kq in the assay with α-glucosidase (Yeast) [4] (298 K) worked out at 1.071e+13 M⁻¹ s⁻¹; in the assay with α-glucosidase (Yeast) [4] (303 K), 7.52e+12 M⁻¹ s⁻¹; with α-glucosidase (Yeast) [4] (310 K) it was 5.55e+12 M⁻¹ s⁻¹.
With `O=C(O)c1ccc(O)c(O)c1` [Protocatechuic acid, protocatechuic acid], on α-glucosidase (Yeast) [2], the IC50 is reported as 369.00 ± 0.11 ^h mg/mL. The pKi on α-glucosidase (Yeast) [3] is 1.75.
As to `O=c1c(O[C@@H]2O[C@H](CO)[C@H](O)[C@H](O)[C@H]2O)c(-c2ccc(O)c(O)c2)oc2cc(O)cc(O)c12` [Hyperoside, hyperoside], the “α-Glucosidase Inhibition Rate” value with α-glucosidase (Yeast) [1] stood at 75.00 ± 0.32%. Besides, the IC50 against α-glucosidase (Yeast) [2] is 12.77 ± 0.07 ^d mg/mL. For the same compound, in the assay with α-glucosidase (Yeast) [3] (listed as HY), the type of inhibition entry is reported as “mixed type of inhibition; also recorded: mixed inhibitors”. For the same compound, the pKi at α-glucosidase (Yeast) [3] is 2.42; on α-glucosidase (Yeast) [3] (listed as HY), 2.41. Also, the KSV is 124300 L/mol with α-glucosidase (Yeast) [4] (298 K), 89600 L/mol in the assay with α-glucosidase (Yeast) [4] (303 K) and 111700 L/mol with α-glucosidase (Yeast) [4] (310 K). Besides, the Kq in the assay with α-glucosidase (Yeast) [4] (298 K) was determined as 1.243e+13 M⁻¹ s⁻¹; in the assay with α-glucosidase (Yeast) [4] (303 K), 8.96e+12 M⁻¹ s⁻¹; in the assay with α-glucosidase (Yeast) [4] (310 K) it was 1.117e+13 M⁻¹ s⁻¹.
For the compound `COc1cc(-c2oc3cc(O)cc(O)c3c(=O)c2O)ccc1O` [Isorhamnetin, isorhamnetin], on α-glucosidase (Yeast) [2], the IC50 was 255.00 ± 0.11 ^g mg/mL. This compound had a pKi at α-glucosidase (Yeast) [3] of 1.82.
